We go through six compounds from patent publication US8889666B2, “Quinolyl pyrrolo pyrimidyl condensed-ring compound and salt thereof” (Taiho Pharmaceutical Co., Ltd., priority 2012, dated 2014).

Common to all, as to type: biochemical
One assay has as its target T1, EGFR (d746-750) (Homo sapiens, UniProt P00533, DEL746-750).
T1 construct: purchased Carna Biosciences, Inc
In words: EGFR (d746-750) kinase inhibitory activity (in vitro). Conditions: recombinant human protein, ATP 5 μM, 90 minutes. The procedure: (§1) The measurement method was as follows. The compounds I-1, I-2, I-3, I-4, I-5, I-6, I-7, I-8, and I-9 were each dissolved in dimethylsulfoxide (DMSO), and then each serially diluted with DMSO. Next, the EGFR (T790M/L858R) protein, substrate peptide (final concentration: 250 nM), magnesium chloride (final concentration: 10 mM), manganese chloride (final concentration: 10 mM), ATP (final concentration: 1 μM), and the diluted DMSO solution of each compound (final concentration of DMSO: 2.5%) were added to a kinase reaction buffer (Carna Biosciences, Inc.), and the mixture was incubated at 25° C. for 120 minutes for kinase reaction. EDTA was added thereto to a final concentration of 24 mM to thereby terminate the reaction. Then, a detection solution containing europium (Eu)-labeled anti-phosphorylated tyrosine antibody PT66 (PerkinElmer) and SureLight APC-SA (PerkinElmer) was added, and the resulting mixture was allowed to stand at room temperature for 2 hours or more. Finally, the intensity of fluorescence under the excitation light with a wavelength of 337 nm was measured by a PHERAstar FS (BMG LABTECH) at two wavelengths of 620 nm and 665 nm. The level of phosphorylation of each test sample was calculated from the fluorescence intensity ratio of the two wavelengths in DMSO control and in the test sample, and the compound concentration at which phosphorylation was inhibited by 50% was determined as the IC50 value (nM) of each compound.
4) Measurement of EGFR (d746-750) Kinase Inhibitory Activity
The inhibitory activities of the compounds I-1, I-2, I-3, I-4, I-5, I-6, I-7, I-8, and I-9 for EGFR (d746-750) kinase activity were measured.
The materials were as follows. The EGFR (d746-750) was a purified recombinant human EGFR (d746-750) protein purchased from Carna Biosciences, Inc. The final concentration of ATP was 5 μM. The incubation time for the kinase reaction was 90 minutes. As for other conditions, the same materials and methods as those used in the measurement of EGFR (T790M/L858R) kinase inhibitory activity were used to determine the IC50 value (nM) of each compound.

In a further assay the target is T2, EGFR (L858R) (Homo sapiens, UniProt P00533, L858R).
T2 construct: purchased Carna Biosciences, Inc
The assay can be described thus: EGFR (L858R) kinase inhibitory activity (in vitro). Conditions: recombinant human protein, ATP 4 μM. The procedure: as §1
3) Measurement of EGFR (L858R) Kinase Inhibitory Activity
The inhibitory activities of the compounds I-1, I-2, I-3, I-4, I-5, I-6, I-7, I-8, and I-9 for EGFR (L858R) kinase were measured.
The materials were as follows. The EGFR (L858R) was a purified recombinant human EGFR (L858R) protein purchased from Carna Biosciences, Inc. The final concentration of ATP was 4 μM. As for other conditions, the same materials and methods as those used in the measurement of EGFR (T790M/L858R) kinase inhibitory activity were used to determine the IC50 value (nM) of each compound.

Another assay concerns the target T3, EGFR (WT) (Homo sapiens, UniProt P00533).
T3 construct: the cytoplasmic domain of human EGFR (WT); FLAG (N); made in house; host or cells: baculovirus expression system, insect Sf9 cells
The assay can be described thus: EGFR (WT) kinase inhibitory activity (in vitro). Conditions: for IC50: cytoplasmic domain of human EGFR (WT), ATP 4.7 μM, substrate peptide 500 nM; for inhibitory activities for EGFR (WT) compared with the mutant EGFR proteins, in words: summary of Table 1. The procedure:
as §1
The inhibitory activities of the compounds I-1, I-2, I-3, I-4, I-5, I-6, I-7, I-8, and I-9 on EGFR (WT) kinase were measured.
The materials were as follows. As the EGFR (WT), the cytoplasmic domain of human EGFR (WT) in which a FLAG tag was fused to the N-terminus was expressed in a baculovirus expression system using insect Sf9 cells, and purified with anti-FLAG antibody agarose (Sigma-Aldrich). The final concentration of the substrate peptide was 500 nM, and the final concentration of ATP was 4.7 μM. As for other conditions, the same materials and methods as those used in the measurement of EGFR (T790M/L858R) kinase inhibitory activity were used to determine the IC50 value (nM) of each compound.

Another assay deals with T4, EGFR (T790M/L858R) (Homo sapiens, UniProt P00533, L858R/T790M).
T4 construct: purchased Carna Biosciences, Inc
The assay can be described thus: EGFR (T790M/L858R) kinase inhibitory activity (in vitro). Conditions: for IC50: recombinant human protein, ATP 1 μM, 120 minutes; for inhibitory activities for EGFR (L858R), EGFR (d746-750), EGFR (T790M/L858R) and EGFR (d746-750/T790M), in words: summary of Table 1, all four mutant kinases. The procedure: 1) Measurement of EGFR (T790M/L858R) Kinase Inhibitory Activity
The inhibitory activities of the compounds I-1, I-2, I-3, I-4, I-5, I-6, I-7, I-8, and I-9 for EGFR (T790M/L858R) kinase were measured.
The materials were as follows. The substrate peptide was a biotinylated peptide (biotin-EEPLYWSFPAKKK) synthesized by reference to the amino acid sequence of FL-Peptide 22 (a reagent for LabChip® Series; Caliper Life Sciences, Inc.). The EGFR (T790M/L858R) was a purified recombinant human EGFR (T790M/L858R) protein purchased from Carna Biosciences, Inc.
as §1

For a further assay, the target named is T5, EGFR (d746-750/T790M) (Homo sapiens, UniProt P00533, DEL746-750/T790M).
T5 construct: purchased Carna Biosciences, Inc
The assay can be described thus: EGFR (d746-750/T790M) kinase inhibitory activity (in vitro). Conditions: recombinant human protein, ATP 1.5 μM. The procedure: as §1
2) Measurement of EGFR (d746-750/T790M) Kinase Inhibitory Activity
The inhibitory activities of the compounds I-1, I-2, I-3, I-4, I-5, I-6, I-7, I-8, and I-9 for EGFR (d746-750/T790M) kinase were measured.
The materials were as follows. The EGFR (d746-750/T790M) was a purified recombinant human EGFR (d746-750/T790M) protein purchased from Carna Biosciences, Inc. The final concentration of ATP was 1.5 μM. As for other conditions, the same materials and methods as those used in the measurement of EGFR (T790M/L858R) kinase inhibitory activity were used to determine the IC50 value (nM) of each compound.

A value given as a limit tells only on which side of the number the result lay.

T2 sequence (P00533 25-1210 L858R): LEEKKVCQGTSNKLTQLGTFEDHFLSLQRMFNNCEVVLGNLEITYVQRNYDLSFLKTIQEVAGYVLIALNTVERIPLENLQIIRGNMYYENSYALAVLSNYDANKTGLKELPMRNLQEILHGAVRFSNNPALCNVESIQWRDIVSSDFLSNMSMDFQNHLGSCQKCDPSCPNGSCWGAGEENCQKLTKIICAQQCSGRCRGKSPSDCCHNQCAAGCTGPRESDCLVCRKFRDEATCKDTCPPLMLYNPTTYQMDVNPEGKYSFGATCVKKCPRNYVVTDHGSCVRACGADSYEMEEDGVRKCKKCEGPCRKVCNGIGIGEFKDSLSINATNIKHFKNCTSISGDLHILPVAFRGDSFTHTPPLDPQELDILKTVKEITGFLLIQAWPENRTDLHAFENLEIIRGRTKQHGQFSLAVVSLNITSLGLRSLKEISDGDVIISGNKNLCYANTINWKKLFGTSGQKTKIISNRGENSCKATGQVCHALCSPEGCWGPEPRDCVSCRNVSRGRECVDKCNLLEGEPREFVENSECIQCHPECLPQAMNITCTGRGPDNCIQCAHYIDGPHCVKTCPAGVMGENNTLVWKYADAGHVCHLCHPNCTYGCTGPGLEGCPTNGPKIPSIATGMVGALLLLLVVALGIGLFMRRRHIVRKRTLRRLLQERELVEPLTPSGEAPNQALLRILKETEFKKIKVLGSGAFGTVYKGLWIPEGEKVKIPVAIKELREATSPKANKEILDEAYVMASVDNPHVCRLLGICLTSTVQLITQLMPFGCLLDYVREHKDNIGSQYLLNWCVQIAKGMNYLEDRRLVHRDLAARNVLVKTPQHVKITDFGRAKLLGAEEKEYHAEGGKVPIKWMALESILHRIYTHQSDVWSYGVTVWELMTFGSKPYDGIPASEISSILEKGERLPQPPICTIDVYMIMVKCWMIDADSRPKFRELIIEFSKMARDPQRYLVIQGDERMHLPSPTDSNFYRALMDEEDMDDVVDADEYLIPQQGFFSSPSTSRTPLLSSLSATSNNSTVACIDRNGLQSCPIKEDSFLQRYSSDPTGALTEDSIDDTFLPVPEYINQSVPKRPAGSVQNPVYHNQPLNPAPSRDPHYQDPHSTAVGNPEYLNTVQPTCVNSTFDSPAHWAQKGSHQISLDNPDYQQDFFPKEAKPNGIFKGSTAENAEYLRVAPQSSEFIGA
T4 sequence (P00533 25-1210 T790M/L858R): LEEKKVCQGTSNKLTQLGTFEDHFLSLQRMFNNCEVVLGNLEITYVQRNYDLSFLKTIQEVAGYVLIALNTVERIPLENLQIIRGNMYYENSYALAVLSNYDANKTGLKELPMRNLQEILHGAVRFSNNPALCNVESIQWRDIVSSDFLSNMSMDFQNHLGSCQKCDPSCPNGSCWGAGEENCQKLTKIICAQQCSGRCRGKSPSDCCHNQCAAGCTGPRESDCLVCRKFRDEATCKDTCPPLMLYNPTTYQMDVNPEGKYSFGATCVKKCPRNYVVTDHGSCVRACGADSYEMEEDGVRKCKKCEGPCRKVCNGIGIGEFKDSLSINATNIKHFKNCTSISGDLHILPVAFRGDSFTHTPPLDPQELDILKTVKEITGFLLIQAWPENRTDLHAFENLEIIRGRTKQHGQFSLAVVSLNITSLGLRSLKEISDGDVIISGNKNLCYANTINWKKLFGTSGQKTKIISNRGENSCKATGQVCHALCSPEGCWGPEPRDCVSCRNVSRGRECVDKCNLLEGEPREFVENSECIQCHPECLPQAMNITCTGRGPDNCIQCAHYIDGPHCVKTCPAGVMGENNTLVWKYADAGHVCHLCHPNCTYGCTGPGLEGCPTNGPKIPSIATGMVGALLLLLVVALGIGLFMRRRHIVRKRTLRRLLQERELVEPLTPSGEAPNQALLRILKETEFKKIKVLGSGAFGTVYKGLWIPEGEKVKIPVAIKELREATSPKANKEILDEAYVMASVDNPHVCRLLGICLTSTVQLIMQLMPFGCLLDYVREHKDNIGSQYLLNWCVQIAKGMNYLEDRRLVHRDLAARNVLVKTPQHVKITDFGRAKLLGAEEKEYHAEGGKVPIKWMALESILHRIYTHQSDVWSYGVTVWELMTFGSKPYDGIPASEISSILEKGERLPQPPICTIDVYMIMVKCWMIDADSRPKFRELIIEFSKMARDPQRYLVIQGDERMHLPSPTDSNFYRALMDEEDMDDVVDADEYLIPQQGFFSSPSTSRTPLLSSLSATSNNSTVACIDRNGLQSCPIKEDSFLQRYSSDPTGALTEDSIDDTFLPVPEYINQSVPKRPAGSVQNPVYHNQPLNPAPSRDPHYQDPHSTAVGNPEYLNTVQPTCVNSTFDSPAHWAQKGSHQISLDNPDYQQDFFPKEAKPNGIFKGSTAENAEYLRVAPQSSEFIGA
T3 sequence (P00533 669-1210 limits assumed): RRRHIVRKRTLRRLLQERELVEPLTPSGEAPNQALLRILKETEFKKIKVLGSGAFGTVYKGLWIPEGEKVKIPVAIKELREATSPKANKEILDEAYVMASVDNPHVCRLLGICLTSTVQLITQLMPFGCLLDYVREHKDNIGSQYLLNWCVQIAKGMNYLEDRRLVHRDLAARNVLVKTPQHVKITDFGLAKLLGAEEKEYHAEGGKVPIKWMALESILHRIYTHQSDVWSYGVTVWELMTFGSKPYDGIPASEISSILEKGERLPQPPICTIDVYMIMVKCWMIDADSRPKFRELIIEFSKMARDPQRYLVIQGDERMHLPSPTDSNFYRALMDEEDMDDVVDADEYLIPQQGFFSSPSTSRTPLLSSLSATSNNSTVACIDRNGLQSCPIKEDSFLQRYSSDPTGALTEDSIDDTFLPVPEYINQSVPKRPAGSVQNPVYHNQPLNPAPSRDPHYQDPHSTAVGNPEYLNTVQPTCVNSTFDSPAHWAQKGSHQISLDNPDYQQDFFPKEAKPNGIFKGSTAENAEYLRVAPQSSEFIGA
T1 sequence (P00533 with tags, fused parts or gaps DEL746-750 limits assumed): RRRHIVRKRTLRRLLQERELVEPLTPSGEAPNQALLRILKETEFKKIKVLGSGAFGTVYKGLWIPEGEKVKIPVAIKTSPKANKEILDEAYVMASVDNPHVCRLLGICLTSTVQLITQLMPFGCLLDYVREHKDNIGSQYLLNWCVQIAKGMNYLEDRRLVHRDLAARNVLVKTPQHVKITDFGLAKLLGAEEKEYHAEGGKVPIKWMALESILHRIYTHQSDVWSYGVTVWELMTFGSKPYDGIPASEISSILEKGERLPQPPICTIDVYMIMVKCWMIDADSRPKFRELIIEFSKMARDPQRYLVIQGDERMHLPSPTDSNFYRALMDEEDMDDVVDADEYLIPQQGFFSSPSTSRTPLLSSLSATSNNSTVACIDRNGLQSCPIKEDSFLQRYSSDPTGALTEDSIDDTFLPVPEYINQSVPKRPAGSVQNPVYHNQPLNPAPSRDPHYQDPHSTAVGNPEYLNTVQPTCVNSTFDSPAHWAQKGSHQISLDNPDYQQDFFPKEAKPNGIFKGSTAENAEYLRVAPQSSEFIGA
T5 sequence (P00533 with tags, fused parts or gaps DEL746-750/T790M limits assumed): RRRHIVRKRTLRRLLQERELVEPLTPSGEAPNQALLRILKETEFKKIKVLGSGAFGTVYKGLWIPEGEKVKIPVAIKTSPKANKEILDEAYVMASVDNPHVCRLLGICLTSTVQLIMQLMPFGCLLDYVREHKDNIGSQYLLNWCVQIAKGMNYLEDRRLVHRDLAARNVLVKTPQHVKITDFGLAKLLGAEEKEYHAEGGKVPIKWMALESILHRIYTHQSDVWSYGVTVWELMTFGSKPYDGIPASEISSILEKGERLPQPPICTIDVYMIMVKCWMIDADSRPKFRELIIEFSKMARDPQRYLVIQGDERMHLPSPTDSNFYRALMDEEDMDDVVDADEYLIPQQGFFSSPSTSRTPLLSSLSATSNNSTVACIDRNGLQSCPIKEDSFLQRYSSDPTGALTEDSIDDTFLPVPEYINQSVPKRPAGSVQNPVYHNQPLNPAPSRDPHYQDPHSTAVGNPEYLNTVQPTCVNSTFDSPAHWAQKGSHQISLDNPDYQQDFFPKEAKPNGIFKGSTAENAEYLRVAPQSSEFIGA

Usually IC50 stands for the concentration needed to halve the response being measured. For `Nc1ncnc2c1c(-c1cnc3ccccc3c1)c1n2C[C@@H](NC(=O)/C=C\Cl)CC1` [Compound I-6, (S,Z)—N-(4-amino-5-(quinolin-3-yl)-6,7,8,9-tetrahydropyrimido[5,4-b]indolizin-8-yl)-3-chloroacrylamide], the IC50 on EGFR (d746-750) stood at 3.6 nM; at EGFR (L858R), 2.9 nM; at EGFR (WT), 41 nM; at EGFR (T790M/L858R), 1.2 nM; at EGFR (d746-750/T790M), 1.2 nM. In addition, on EGFR (WT), the “inhibitory activities for EGFR (WT) compared with the mutant EGFR proteins, in words” value is on record as “lower than those for the above mutant EGFR proteins”. The “inhibitory activities for EGFR (L858R), EGFR (d746-750), EGFR (T790M/L858R) and EGFR (d746-750/T790M), in words” value (“inhibitory activities for EGFR (L858R)” below) on EGFR (T790M/L858R) is given as “potent inhibitory activities”.

Turning to `C=CC(=O)N[C@H]1CCc2c(-c3cnc4ccccc4c3)c3c(N)ncnc3n2CC1` [Compound I-7, (S)-N-(4-amino-5-(quinolin-3-yl)-7,8,9,10-tetrahydro-6H-pyrimido[5′,4′:4,5]pyrrolo[1,2-a]azepin-8-yl)acrylamide], the IC50 on EGFR (d746-750) is 1.8 nM; on EGFR (L858R), 2.9 nM; against EGFR (WT), 33 nM; at EGFR (T790M/L858R), 1.4 nM; on EGFR (d746-750/T790M), 0.5 nM. For the same compound, the “inhibitory activities for EGFR (WT) compared with the mutant EGFR proteins, in words” value against EGFR (WT) is reported as “lower than those for the above mutant EGFR proteins”. Besides, the “inhibitory activities for EGFR (L858R)” value against EGFR (T790M/L858R) is given as “potent inhibitory activities”.

As for `C=CC(=O)N[C@@H]1CCc2c(-c3cnc4ccccc4c3)c3c(N)ncnc3n2C1` (single isomer, unassigned) [Compound I-1], the IC50 on EGFR (d746-750) worked out at 13 nM; at EGFR (L858R), 14 nM; against EGFR (WT), 170 nM; at EGFR (T790M/L858R) it was 5.3 nM; at EGFR (d746-750/T790M), 2.8 nM. Also, at EGFR (WT), the “inhibitory activities for EGFR (WT) compared with the mutant EGFR proteins, in words” value is given as “lower than those for the above mutant EGFR proteins”. Moreover, the “inhibitory activities for EGFR (L858R)” value against EGFR (T790M/L858R) is on record as “potent inhibitory activities”.

Turning to `CN(C)C/C=C/C(=O)NC1CCc2c(-c3cnc4ccccc4c3)c3c(N)ncnc3n2C1` (centres unmarked) [Compound I-4, (E)-N-(4-amino-5-(quinolin-3-yl)-6,7,8,9-tetrahydropyrimido[5,4-b]indolizin-8-yl)-4-(dimethylamino)-2-butenamide], the IC50 came out at 10 nM on EGFR (d746-750); 12 nM on EGFR (L858R); 120 nM against EGFR (WT); 6.7 nM on EGFR (T790M/L858R); 4.1 nM at EGFR (d746-750/T790M). Besides, on EGFR (WT), the “inhibitory activities for EGFR (WT) compared with the mutant EGFR proteins, in words” value is on record as “lower than those for the above mutant EGFR proteins”. Further, the “inhibitory activities for EGFR (L858R)” value at EGFR (T790M/L858R) is recorded as “potent inhibitory activities”.

With `C=CC(=O)N[C@H]1CCCc2c(-c3cnc4ccccc4c3)c3c(N)ncnc3n2C1` [Compound I-8, (S)-N-(4-amino-5-(quinolin-3-yl)-7,8,9,10-tetrahydro-6H-pyrimido[5′,4′:4,5]pyrrolo[1,2-a]azepin-9-yl)acrylamide], the IC50 on EGFR (d746-750) stood at 20 nM; on EGFR (L858R), 41 nM; at EGFR (WT), 490 nM; at EGFR (T790M/L858R), 18 nM; on EGFR (d746-750/T790M), 13 nM. For the same compound, the “inhibitory activities for EGFR (WT) compared with the mutant EGFR proteins, in words” value at EGFR (WT) is on record as “lower than those for the above mutant EGFR proteins”. Further, the “inhibitory activities for EGFR (L858R)” value against EGFR (T790M/L858R) is listed as “potent inhibitory activities”.

Regarding `Nc1ncnc2c1c(-c1cccc(NC(=O)c3ccccc3)c1)c1n2CCCC1` [Comp. Ex. 1, N-(3-(4-amino-6,7,8,9-tetrahydropyrimido[5,4-b]indolizin-5-yl)phenyl)benzamide, reference compound], the IC50 at EGFR (d746-750) was 1500 nM; on EGFR (L858R) it was above 5000 nM; against EGFR (WT), above 5000 nM; on EGFR (T790M/L858R) it was above 5000 nM; on EGFR (d746-750/T790M) it was above 5000 nM. In addition, the “inhibitory activity for these EGFR kinases, in words” value at EGFR (T790M/L858R) (all EGFR kinases of Test Example 1) was “almost no inhibitory activity”.
